Test results taken from the supplement of paper PMC10307832.

Columns and labels:
Assay in all cases: relative viability (nuclei count vs DMSO), 5 days (fraction); higher = more cells survive
[1] = compound: COc1cc2/c(=N/c3ccc(Br)cc3F)nc[nH]c2cc1OCC1CCN(C)CC1 [Vandetanib] + C[C@]1(O)C[C@@H](c2nc(-c3ccc4ccc(-c5ccccc5)nc4c3)c3c(N)nccn32)C1 [Linsitinib] (partner 1 µM)
Outline: (§1)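 Lung cancer cell lines were seeded in 1536-well plates and dosed by pin tool the next day, with either a single drug or a fixed anchor-drug dose combined with five library-drug doses (not always all listed) spaced in √10 steps. Five days later, one step fixed the cells and stained their nuclei (final 0.05% Triton X-100, 1% formaldehyde, 1 ug/ml Hoechst), and nuclei were counted on 4× images. Relative viability is the nuclei count in treated wells divided by the count in vehicle wells, and each value is the median of duplicate plates.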

[2] = compound: C1=CC=C2C(=C1)N=C(S2)C(C#N)C3=NC(=NC=C3)NCCC4=CN=CC=C4 + Nc1nc2[nH]cc(CCc3ccc(C(=O)N[C@@H](CCC(=O)O)C(=O)O)cc3)c2c(=O)[nH]1 [Pemetrexed] (partner 0.2 µM)
Outline: as §1

[3] = compound: C#Cc1cccc(Nc2ncnc3cc(OC)c(OCCCCCCC(=O)NO)cc23)c1 [CUDC-101] + C[C@]1(O)C[C@@H](c2nc(-c3ccc4ccc(-c5ccccc5)nc4c3)c3c(N)nccn32)C1 [Linsitinib] (partner 1 µM)
Outline: as §1

[4] = compound: COc1cc(N2CCC(N3CCN(C)CC3)CC2)ccc1Nc1ncc(Cl)c(Nc2ccccc2S(=O)(=O)C(C)C)n1 [NVP-TAE684] + CC(=O)Nc1cccc(-n2c(=O)n(C3CC3)c(=O)c3c(Nc4ccc(I)cc4F)n(C)c(=O)c(C)c32)c1 [Trametinib] (partner 0.02 µM)
Outline: as §1

Cell Line | relative viability ([1]; first compound 0.02 µM) | relative viability ([1]; first compound 0.06325 µM) | relative viability ([1]; first compound 0.2 µM) | relative viability ([1]; first compound 0.6325 µM) | relative viability ([1]; first compound 2 µM) | relative viability ([2]; first compound 0.005 µM) | relative viability ([2]; first compound 0.01581 µM) | relative viability ([2]; first compound 0.05 µM) | relative viability ([2]; first compound 0.1581 µM) | relative viability ([2]; first compound 0.5 µM) | relative viability ([3]; first compound 0.01 µM) | relative viability ([3]; first compound 0.03162 µM) | relative viability ([3]; first compound 0.1 µM) | relative viability ([3]; first compound 0.3162 µM) | relative viability ([3]; first compound 1 µM) | relative viability ([4]; first compound 0.2 µM) | relative viability ([4]; first compound 0.6325 µM) | relative viability ([4]; first compound 2 µM)
SK-MES-1 | 1.09 | 0.925 | 1.06 | 0.971 | 0.989 | 0.799 | 0.923 | 0.823 | 1.04 | 0.644 | 1.17 | 1.13 | 1.05 | 1.1 | 0.742 | 0.578 | 0.492 | 0.378
SW 1573 | 0.832 | 0.777 | 0.749 | 0.741 | 0.794 | 0.598 | 0.782 | 0.702 | 0.9 | 0.629 | 0.867 | 0.919 | 0.915 | 0.955 | 0.637 | 0.651 | 0.495 | 0.21
